Here are results for three compounds from PubChem BioAssay AID1963845 (Molecular Pharmacology Branch, DTP, NCI, 2024).

Usually viability, T/C stands for the result in the treated group divided by that in the control group, in per cent.

SMILES strings stand for the structures.
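Also: luminescence signal used as surrogate measure of viable cells; spheroids exposed to compounds for seven days before readout; 100% = DMSO vehicle control viability as luminescence relative to vehicle.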

One assay deals with 429239-143-T-J1-PDC complex spheroid viability. Description: Anticancer human tumor 429239-143-T-J1-PDC patient-derived small cell lung carcinoma cell line growth inhibition [POLQ]. The following applies: second compound 0.0316 µM; first compound 3.16 µM; stronger effect = lower value. The method in brief: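 Three-cell-type spheroids modelling solid tumor plus stroma served as the readout system; POL inhibitors were tested individually and in combination, concentration ranges set by clinical Cmax where known.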
Turning to `CC(C)n1c(=O)n(C)c2cnc3cc(F)c(-c4ccc(OCCCN5CCCCC5)nc4)cc3c21` + Nc1ccc(C#CCN(C(=O)Cc2ncc(C(F)(F)F)cc2C(F)(F)F)c2ccc(F)cc2)nn1, the viability, T/C is 102%.

For the compound `COc1ccc([C@@H](O)c2cc(-c3ncnc4cc(N5CCOCC5)ccc34)c(F)cc2Cl)nn1` + Nc1ccc(C#CCN(C(=O)Cc2ncc(C(F)(F)F)cc2C(F)(F)F)c2ccc(F)cc2)nn1, the viability, T/C was 90.1%.

The assay is the same for the next values; noted with them: second compound 0.0316 µM; first compound 10 µM; stronger effect = lower value.
Regarding `C=CC(=O)N1CCN(c2nc(=O)n(-c3c(C)ccnc3C(C)C)c3nc(-c4c(O)cccc4F)c(F)cc23)C(C)C1` (configuration not stated) + Nc1ccc(C#CCN(C(=O)Cc2ncc(C(F)(F)F)cc2C(F)(F)F)c2ccc(F)cc2)nn1, the viability, T/C was 93.8%.

Regarding `CC(C)n1c(=O)n(C)c2cnc3cc(F)c(-c4ccc(OCCCN5CCCCC5)nc4)cc3c21` + Nc1ccc(C#CCN(C(=O)Cc2ncc(C(F)(F)F)cc2C(F)(F)F)c2ccc(F)cc2)nn1, the viability, T/C is 97.8%.

`COc1ccc([C@@H](O)c2cc(-c3ncnc4cc(N5CCOCC5)ccc34)c(F)cc2Cl)nn1` + Nc1ccc(C#CCN(C(=O)Cc2ncc(C(F)(F)F)cc2C(F)(F)F)c2ccc(F)cc2)nn1: the viability, T/C was 47.2%.

Staying with this assay, now noted: second compound 0.1 µM; first compound 0.0316 µM; stronger effect = lower value.
For `C=CC(=O)N1CCN(c2nc(=O)n(-c3c(C)ccnc3C(C)C)c3nc(-c4c(O)cccc4F)c(F)cc23)C(C)C1` (configuration not stated) + Nc1ccc(C#CCN(C(=O)Cc2ncc(C(F)(F)F)cc2C(F)(F)F)c2ccc(F)cc2)nn1, the viability, T/C is 97.7%.

Take `CC(C)n1c(=O)n(C)c2cnc3cc(F)c(-c4ccc(OCCCN5CCCCC5)nc4)cc3c21` + Nc1ccc(C#CCN(C(=O)Cc2ncc(C(F)(F)F)cc2C(F)(F)F)c2ccc(F)cc2)nn1: the viability, T/C is 102%.

For the compound `COc1ccc([C@@H](O)c2cc(-c3ncnc4cc(N5CCOCC5)ccc34)c(F)cc2Cl)nn1` + Nc1ccc(C#CCN(C(=O)Cc2ncc(C(F)(F)F)cc2C(F)(F)F)c2ccc(F)cc2)nn1, the viability, T/C is 97.8%.

The same assay, now with this note: second compound 0.1 µM; first compound 0.1 µM; stronger effect = lower value.
As for `C=CC(=O)N1CCN(c2nc(=O)n(-c3c(C)ccnc3C(C)C)c3nc(-c4c(O)cccc4F)c(F)cc23)C(C)C1` (configuration not stated) + Nc1ccc(C#CCN(C(=O)Cc2ncc(C(F)(F)F)cc2C(F)(F)F)c2ccc(F)cc2)nn1, the viability, T/C was 113%.

As for `CC(C)n1c(=O)n(C)c2cnc3cc(F)c(-c4ccc(OCCCN5CCCCC5)nc4)cc3c21` + Nc1ccc(C#CCN(C(=O)Cc2ncc(C(F)(F)F)cc2C(F)(F)F)c2ccc(F)cc2)nn1, the viability, T/C was 105%.

In the case of `COc1ccc([C@@H](O)c2cc(-c3ncnc4cc(N5CCOCC5)ccc34)c(F)cc2Cl)nn1` + Nc1ccc(C#CCN(C(=O)Cc2ncc(C(F)(F)F)cc2C(F)(F)F)c2ccc(F)cc2)nn1, the viability, T/C was 105%.

Staying with this assay, now noted: second compound 0.1 µM; first compound 0.316 µM; stronger effect = lower value.
As to `C=CC(=O)N1CCN(c2nc(=O)n(-c3c(C)ccnc3C(C)C)c3nc(-c4c(O)cccc4F)c(F)cc23)C(C)C1` (configuration not stated) + Nc1ccc(C#CCN(C(=O)Cc2ncc(C(F)(F)F)cc2C(F)(F)F)c2ccc(F)cc2)nn1, the viability, T/C was 108%.

Turning to `CC(C)n1c(=O)n(C)c2cnc3cc(F)c(-c4ccc(OCCCN5CCCCC5)nc4)cc3c21` + Nc1ccc(C#CCN(C(=O)Cc2ncc(C(F)(F)F)cc2C(F)(F)F)c2ccc(F)cc2)nn1, the viability, T/C is 99.9%.

Consider `COc1ccc([C@@H](O)c2cc(-c3ncnc4cc(N5CCOCC5)ccc34)c(F)cc2Cl)nn1` + Nc1ccc(C#CCN(C(=O)Cc2ncc(C(F)(F)F)cc2C(F)(F)F)c2ccc(F)cc2)nn1, for which the viability, T/C was 101%.

Staying with this assay, now noted: second compound 0.1 µM; first compound 1 µM; stronger effect = lower value.
As to `C=CC(=O)N1CCN(c2nc(=O)n(-c3c(C)ccnc3C(C)C)c3nc(-c4c(O)cccc4F)c(F)cc23)C(C)C1` (configuration not stated) + Nc1ccc(C#CCN(C(=O)Cc2ncc(C(F)(F)F)cc2C(F)(F)F)c2ccc(F)cc2)nn1, the viability, T/C is 114%.

On to `CC(C)n1c(=O)n(C)c2cnc3cc(F)c(-c4ccc(OCCCN5CCCCC5)nc4)cc3c21` + Nc1ccc(C#CCN(C(=O)Cc2ncc(C(F)(F)F)cc2C(F)(F)F)c2ccc(F)cc2)nn1, for which the viability, T/C was 102%.

With `COc1ccc([C@@H](O)c2cc(-c3ncnc4cc(N5CCOCC5)ccc34)c(F)cc2Cl)nn1` + Nc1ccc(C#CCN(C(=O)Cc2ncc(C(F)(F)F)cc2C(F)(F)F)c2ccc(F)cc2)nn1, the viability, T/C was 94.3%.

The same assay, now with this note: second compound 0.1 µM; first compound 3.16 µM; stronger effect = lower value.
As for `C=CC(=O)N1CCN(c2nc(=O)n(-c3c(C)ccnc3C(C)C)c3nc(-c4c(O)cccc4F)c(F)cc23)C(C)C1` (configuration not stated) + Nc1ccc(C#CCN(C(=O)Cc2ncc(C(F)(F)F)cc2C(F)(F)F)c2ccc(F)cc2)nn1, the viability, T/C was 102%.

Turning to `CC(C)n1c(=O)n(C)c2cnc3cc(F)c(-c4ccc(OCCCN5CCCCC5)nc4)cc3c21` + Nc1ccc(C#CCN(C(=O)Cc2ncc(C(F)(F)F)cc2C(F)(F)F)c2ccc(F)cc2)nn1, the viability, T/C was 106%.

As to `COc1ccc([C@@H](O)c2cc(-c3ncnc4cc(N5CCOCC5)ccc34)c(F)cc2Cl)nn1` + Nc1ccc(C#CCN(C(=O)Cc2ncc(C(F)(F)F)cc2C(F)(F)F)c2ccc(F)cc2)nn1, the viability, T/C is 86.1%.

The assay is the same for the next values; noted with them: second compound 0.1 µM; first compound 10 µM; stronger effect = lower value.
For `C=CC(=O)N1CCN(c2nc(=O)n(-c3c(C)ccnc3C(C)C)c3nc(-c4c(O)cccc4F)c(F)cc23)C(C)C1` (configuration not stated) + Nc1ccc(C#CCN(C(=O)Cc2ncc(C(F)(F)F)cc2C(F)(F)F)c2ccc(F)cc2)nn1, the viability, T/C was 96.8%.

Consider `CC(C)n1c(=O)n(C)c2cnc3cc(F)c(-c4ccc(OCCCN5CCCCC5)nc4)cc3c21` + Nc1ccc(C#CCN(C(=O)Cc2ncc(C(F)(F)F)cc2C(F)(F)F)c2ccc(F)cc2)nn1, for which the viability, T/C is 90.9%.

As to `COc1ccc([C@@H](O)c2cc(-c3ncnc4cc(N5CCOCC5)ccc34)c(F)cc2Cl)nn1` + Nc1ccc(C#CCN(C(=O)Cc2ncc(C(F)(F)F)cc2C(F)(F)F)c2ccc(F)cc2)nn1, the viability, T/C is 48.4%.

The same assay, now with this note: second compound 0.316 µM; first compound 0.0316 µM; stronger effect = lower value.
With `C=CC(=O)N1CCN(c2nc(=O)n(-c3c(C)ccnc3C(C)C)c3nc(-c4c(O)cccc4F)c(F)cc23)C(C)C1` (configuration not stated) + Nc1ccc(C#CCN(C(=O)Cc2ncc(C(F)(F)F)cc2C(F)(F)F)c2ccc(F)cc2)nn1, the viability, T/C is 108%.

Regarding `CC(C)n1c(=O)n(C)c2cnc3cc(F)c(-c4ccc(OCCCN5CCCCC5)nc4)cc3c21` + Nc1ccc(C#CCN(C(=O)Cc2ncc(C(F)(F)F)cc2C(F)(F)F)c2ccc(F)cc2)nn1, the viability, T/C is 101%.

As for `COc1ccc([C@@H](O)c2cc(-c3ncnc4cc(N5CCOCC5)ccc34)c(F)cc2Cl)nn1` + Nc1ccc(C#CCN(C(=O)Cc2ncc(C(F)(F)F)cc2C(F)(F)F)c2ccc(F)cc2)nn1, the viability, T/C was 107%.

Staying with this assay, now noted: second compound 0.316 µM; first compound 0.1 µM; stronger effect = lower value.
Turning to `C=CC(=O)N1CCN(c2nc(=O)n(-c3c(C)ccnc3C(C)C)c3nc(-c4c(O)cccc4F)c(F)cc23)C(C)C1` (configuration not stated) + Nc1ccc(C#CCN(C(=O)Cc2ncc(C(F)(F)F)cc2C(F)(F)F)c2ccc(F)cc2)nn1, the viability, T/C was 97.6%.

For `CC(C)n1c(=O)n(C)c2cnc3cc(F)c(-c4ccc(OCCCN5CCCCC5)nc4)cc3c21` + Nc1ccc(C#CCN(C(=O)Cc2ncc(C(F)(F)F)cc2C(F)(F)F)c2ccc(F)cc2)nn1, the viability, T/C is 107%.

Regarding `COc1ccc([C@@H](O)c2cc(-c3ncnc4cc(N5CCOCC5)ccc34)c(F)cc2Cl)nn1` + Nc1ccc(C#CCN(C(=O)Cc2ncc(C(F)(F)F)cc2C(F)(F)F)c2ccc(F)cc2)nn1, the viability, T/C was 101%.

Still in this assay, the particulars now being: second compound 0.316 µM; first compound 0.316 µM; stronger effect = lower value.
As for `C=CC(=O)N1CCN(c2nc(=O)n(-c3c(C)ccnc3C(C)C)c3nc(-c4c(O)cccc4F)c(F)cc23)C(C)C1` (configuration not stated) + Nc1ccc(C#CCN(C(=O)Cc2ncc(C(F)(F)F)cc2C(F)(F)F)c2ccc(F)cc2)nn1, the viability, T/C is 99.6%.

With `CC(C)n1c(=O)n(C)c2cnc3cc(F)c(-c4ccc(OCCCN5CCCCC5)nc4)cc3c21` + Nc1ccc(C#CCN(C(=O)Cc2ncc(C(F)(F)F)cc2C(F)(F)F)c2ccc(F)cc2)nn1, the viability, T/C is 93.3%.

For `COc1ccc([C@@H](O)c2cc(-c3ncnc4cc(N5CCOCC5)ccc34)c(F)cc2Cl)nn1` + Nc1ccc(C#CCN(C(=O)Cc2ncc(C(F)(F)F)cc2C(F)(F)F)c2ccc(F)cc2)nn1, the viability, T/C was 102%.
